In patent publication US6737383B1, “Herbicidal oxadiazolidines” (priority 1999, dated 2004):

How the values were obtained:
cocklebur = assay: Test B pre/postemergence cocklebur; format: in vivo, Xanthium strumarium
Method in brief: (§1)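 Response is a visual 0-to-10 score relative to untreated plants, where 0 means no effect and 10 means complete control, taken twelve to sixteen days after application. Treatments went onto soil at planting and onto foliage of 1- to 4-leaf plants, using a surfactant-containing non-phytotoxic solvent.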

rape = assay: Test B pre/postemergence rape; format: in vivo, Brassica napus
Method in brief: as §1

sugar beet = assay: Test B pre/postemergence sugar beet; format: in vivo, Beta vulgaris
Method in brief: as §1

bamyardgrass = assay: Test B flood test barnyardgrass; format: in vivo, Echinochloa crus-galli; details: for Plant response rating, Barnyardgrass (0 to 10 scale, 0 is no effect, 10 is complete control) / Barnyardgrass plant response rating (0 to 10 scale, 0 is no effect, 10 is complete control): visual evaluation after twelve to sixteen days; for Barnyardgrass plant response rating (0 to 10 scale, 0 is no effect, 10 is complete control): under heading Pre-emergence
Method in brief: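 Read-out is a visual response score from 0 (no effect) to 10 (complete control), assigned by comparison with untreated controls. Treatment was applied at the 2-leaf stage, and plants stayed in the greenhouse for twelve to sixteen days before scoring.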

[1] = Postemergence, Rate 62 g/ha, scale of 0 to 10, 0 is no effect, 10 is complete control
[2] = Postemergence, Rate 125 g/ha, scale of 0 to 10 where 0 is no effect and 10 is complete control
[3] = Postemergence, Rate 500 g/ha, scale of 0 to 10 where 0 is no effect and 10 is complete control
[4] = Preemergence, Rate 62 g/ha, scale 0 to 10 (0 no effect, 10 complete control)
[5] = Preemergence, Rate 125 g/ha, scale of 0 to 10 where 0 is no effect and 10 is complete control
[6] = Preemergence, Rate 500 g/ha, scale of 0 to 10 where 0 is no effect and 10 is complete control
[7] = Rate 250 g/ha, Postemergence, scale of 0 to 10 where 0 is no effect and 10 is complete control
[8] = Rate 62 g/ha, flood test species, Pre-emergence
[9] = Rate 125 g/ha, flood test species
[10] = Rate 250 g/ha, Pre-emergence (flood test species), scale 0 to 10, 0 is no effect, 10 is complete control
[11] = Rate 500 g/ha, Pre-emergence section of Table B, 0 to 10 scale (0 no effect, 10 complete control)
[12] = Preemergence, Rate 125 g/ha, 0 is no effect, 10 is complete control
[13] = Preemergence, Rate 250 g/ha, scale 0 to 10, 0 is no effect, 10 is complete control
[14] = Rate 62 g/ha, Postemergence, scale of 0 to 10 where 0 is no effect and 10 is complete control
[15] = Rate 125 g/ha, Postemergence, scale 0 to 10
[16] = Rate 500 g/ha, Postemergence, scale 0 to 10
[17] = Preemergence, Rate 62 g/ha, scale of 0 to 10 where 0 is no effect and 10 is complete control
[18] = Preemergence, Rate 500 g/ha, scale 0 to 10 (0 no effect, 10 complete control)
[19] = Postemergence, Rate 62 g/ha, scale 0 to 10, 0 is no effect, 10 is complete control
[20] = Preemergence, Rate 250 g/ha, scale 0 to 10 (0 no effect, 10 complete control)
[21] = Rate 500 g/ha, Postemergence, scale 0 to 10, 0 is no effect, 10 is complete control
[22] = Postemergence, Rate 250 g/ha, scale 0 to 10
[23] = Preemergence, Rate 500 g/ha, scale 0 to 10, 0 is no effect, 10 is complete control
[24] = Rate 62 g/ha, Postemergence, scale 0 to 10 (0 no effect, 10 complete control)
[25] = Rate 125 g/ha, Postemergence, scale 0 to 10, 0 is no effect, 10 is complete control

## CC(C)N(C(=O)n1oc(=O)n(CC2CCC2)c1=O)c1ccccc1 [Compound 580]
cocklebur; [1]
  Cocklebur plant response rating: 3
cocklebur; [2]
  Plant response rating, Cocklebur: 3
cocklebur; [3]
  Plant response rating, Cocklebur: 6
cocklebur; [4]
  Cocklebur plant response rating: 0
cocklebur; [5]
  Cocklebur plant response rating: 0
cocklebur; Preemergence, Rate 250 g/ha
  Cocklebur plant response rating (0 to 10 scale): 0
cocklebur; [6]
  Cocklebur plant response rating: 3
cocklebur; [7]
  Plant response rating, Cocklebur: 3
rape; [1]
  Rape plant response rating: 4
rape; [2]
  Plant response rating, Rape: 6
rape; [3]
  Plant response rating, Rape: 8
rape; [4]
  Rape plant response rating: 0
rape; [5]
  Rape plant response rating: 3
rape; Preemergence, Rate 250 g/ha
  Rape plant response rating (0 to 10 scale): 7
rape; [6]
  Rape plant response rating: 8
rape; [7]
  Plant response rating, Rape: 7
Sugar beet; [2]
  Plant response rating, Sugarbeets: 4
Sugar beet; [3]
  Plant response rating, Sugarbeets: 6
Sugar beet; [4]
  Sugarbeets plant response rating: 0
Sugar beet; [5]
  Sugarbeets plant response rating: 0
Sugar beet; Preemergence, Rate 250 g/ha
  Sugarbeets plant response rating (0 to 10 scale): 4
Sugar beet; [6]
  Sugarbeets plant response rating: 5
Sugar beet; [7]
  Plant response rating, Sugarbeets: 5
bamyardgrass; [8]
  Plant response rating, Barnyardgrass (0 to 10 scale, 0 is no effect, 10 is complete control): 0
bamyardgrass; [9]
  Barnyardgrass plant response rating (0 to 10 scale, 0 is no effect, 10 is complete control): 0
bamyardgrass; [10]
  Barnyardgrass plant response rating: 0
bamyardgrass; [11]
  Barnyardgrass plant response rating: 0

## Cc1ccccc1-n1c(=O)on(C(=O)N(c2ccc(Cl)cc2Cl)C(C)C)c1=O [Compound 185]
cocklebur; [12]
  Cocklebur plant response rating (0 to 10 scale): 0
cocklebur; [13]
  Cocklebur plant response rating: 0
cocklebur; [14]
  Cocklebur plant response rating: 0
cocklebur; [15]
  Cocklebur plant response rating: 0
cocklebur; Rate 250 g/ha, Postemergence
  Plant response rating (0 to 10; 0 is no effect, 10 is complete control), Cocklebur: 0
cocklebur; [16]
  Cocklebur plant response rating: 2
rape; [17]
  Rape plant response rating: 0
rape; [12]
  Rape plant response rating (0 to 10 scale): 0
rape; [13]
  Rape plant response rating: 0
rape; [18]
  Rape plant response rating: 0
rape; [14]
  Rape plant response rating: 0
rape; [15]
  Rape plant response rating: 0
rape; Rate 250 g/ha, Postemergence
  Plant response rating (0 to 10; 0 is no effect, 10 is complete control), Rape: 0
rape; [16]
  Rape plant response rating: 0
Sugar beet; [17]
  Sugarbeets plant response rating: 0
Sugar beet; [12]
  Sugarbeets plant response rating (0 to 10 scale): 0
Sugar beet; [13]
  Sugarbeets plant response rating: 0
Sugar beet; [18]
  Sugarbeets plant response rating: 0
Sugar beet; [14]
  Sugarbeets plant response rating: 0
Sugar beet; [15]
  Sugarbeets plant response rating: 0
Sugar beet; Rate 250 g/ha, Postemergence
  Plant response rating (0 to 10; 0 is no effect, 10 is complete control), Sugarbeets: 0
Sugar beet; [16]
  Sugarbeets plant response rating: 0
bamyardgrass; Rate 62 g/ha, headed Pre-emergence (flood test species), scale 0 to 10 (0 no effect, 10 complete control)
  Barnyardgrass plant response rating: 0
bamyardgrass; Rate 125 g/ha, Pre-emergence, flood test species, scale 0 to 10 where 0 is no effect and 10 is complete control
  Barnyardgrass plant response rating: 0
bamyardgrass; Rate 250 g/ha, Pre-emergence, flood-test species, scale 0 to 10, 0 is no effect, 10 is complete control
  Barnyardgrass plant response rating: 0
bamyardgrass; Rate 500 g/ha, headed Pre-emergence (flood test species), scale 0 to 10 (0 no effect, 10 complete control)
  Plant response rating, Barnyardgrass: 0

## C#CC(C)n1c(=O)on(C(=O)N(c2ccc(Cl)cc2)C(C)C)c1=O (racemic) [Compound 658]
cocklebur; [19]
  Plant response rating, Cocklebur: 0
cocklebur; [2]
  Cocklebur plant response rating: 0
cocklebur; Postemergence, Rate 250 g/ha, scale of 0 to 10, 0 is no effect, 10 is complete control
  Cocklebur plant response rating: 2
cocklebur; [17]
  Cocklebur plant response rating: 0
cocklebur; [5]
  Cocklebur plant response rating: 0
cocklebur; [20]
  Plant response rating, Cocklebur: 0
cocklebur; [6]
  Plant response rating, Cocklebur: 0
cocklebur; [21]
  Cocklebur plant response rating: 5
rape; [19]
  Plant response rating, Rape: 0
rape; [2]
  Rape plant response rating: 0
rape; [17]
  Rape plant response rating: 2
rape; [5]
  Rape plant response rating: 5
rape; [20]
  Plant response rating, Rape: 5
rape; [6]
  Plant response rating, Rape: 8
rape; [21]
  Rape plant response rating: 3
Sugar beet; [19]
  Plant response rating, Sugarbeets: 0
Sugar beet; [2]
  Sugarbeets plant response rating: 0
Sugar beet; [17]
  Sugarbeets plant response rating: 3
Sugar beet; [5]
  Sugarbeets plant response rating: 7
Sugar beet; [20]
  Plant response rating, Sugarbeets: 6
Sugar beet; [6]
  Plant response rating, Sugarbeets: 7
Sugar beet; [21]
  Sugarbeets plant response rating: 2
bamyardgrass; [8]
  Plant response rating, Barnyardgrass (0 to 10 scale, 0 is no effect, 10 is complete control): 0
bamyardgrass; [9]
  Barnyardgrass plant response rating (0 to 10 scale, 0 is no effect, 10 is complete control): 0
bamyardgrass; [10]
  Barnyardgrass plant response rating: 0
bamyardgrass; [11]
  Barnyardgrass plant response rating: 0

## CC(C)N(C(=O)n1oc(=O)n(C(C)Cl)c1=O)c1ccccc1 (centres unmarked) [Compound 438]
cocklebur; [22]
  Cocklebur plant response rating: 3
cocklebur; [3]
  Cocklebur plant response rating: 3
cocklebur; [17]
  Plant response rating, Cocklebur: 0
cocklebur; [5]
  Plant response rating, Cocklebur: 0
cocklebur; [13]
  Cocklebur plant response rating: 0
cocklebur; [23]
  Cocklebur plant response rating: 0
cocklebur; [24]
  Cocklebur plant response rating: 0
cocklebur; [25]
  Cocklebur plant response rating: 0
rape; [22]
  Rape plant response rating: 0
rape; [3]
  Rape plant response rating: 0
rape; [17]
  Plant response rating, Rape: 0
rape; [5]
  Plant response rating, Rape: 0
rape; [13]
  Rape plant response rating: 0
rape; [23]
  Rape plant response rating: 2
rape; [24]
  Rape plant response rating: 0
rape; [25]
  Rape plant response rating: 0
Sugar beet; [22]
  Sugarbeets plant response rating: 0
Sugar beet; [3]
  Sugarbeets plant response rating: 0
Sugar beet; [17]
  Plant response rating, Sugarbeets: 0
Sugar beet; [5]
  Plant response rating, Sugarbeets: 0
Sugar beet; [13]
  Sugarbeets plant response rating: 0
Sugar beet; [23]
  Sugarbeets plant response rating: 0
Sugar beet; [24]
  Sugarbeets plant response rating: 0
Sugar beet; [25]
  Sugarbeets plant response rating: 0
bamyardgrass; [8]
  Plant response rating, Barnyardgrass (0 to 10 scale, 0 is no effect, 10 is complete control): 0
bamyardgrass; [9]
  Barnyardgrass plant response rating (0 to 10 scale, 0 is no effect, 10 is complete control): 0
bamyardgrass; [10]
  Barnyardgrass plant response rating: 0
bamyardgrass; Rate 500 g/ha, Pre-emergence, flood test species, scale 0 to 10 (0 no effect, 10 complete control)
  Barnyardgrass plant response rating: 0
